Test results from publication PMC4416786, “Validation of a P-Glycoprotein (P-gp) Humanized Mouse Model by Integrating Selective Absolute Quantification of Human MDR1, Mouse Mdr1a and Mdr1b Protein Expressions with In Vivo Functional Analysis for Blood-Brain Barrier Transport” (PLoS ONE, 2015).
Like-named read-outs stand apart in the source and are kept apart here.

How the values were obtained:
in vitro = assay: in vitro
Method: Equilibrium dialysis was performed to measure the plasma unbound fraction of the drugs studied, and to measure possible differences in the plasma protein binding between hMDR1 and C57BL/6 WT mice. A high throughput, 96 well equilibrium dialysis apparatus (Model HTD96b, HTDialysis, Connecticut, USA) with dialysis membrane strips with a molecular weight cut-off of 12–14 kDa was used. The concentrations of the substances were the same as those achieved in plasma during the in vivo experiments. One side of each well used was loaded with 125 μl of plasma spiked with drug and the other side was loaded with 125 μl phosphate buffer saline (PBS). The top surface of the Teflon block was then sealed with an adhesive film. […] Triplicates of the same concentration for each compound were measured. After the incubation period 80 μl from the buffer side was added into 80 μl of blank mouse plasma and 80 μl from the plasma was added into 80 μl of PBS. Samples were stored at -20 until analysis.

mouse P-gp = mouse P-gp (Mus musculus, UniProt P21447); assay: in vivo; settings: C57BL/6, mouse
[1] = C57BL/6, mouse, 5 h, 200 nM
human P-gp (hMDR1) [2] = assay: in vivo; settings: hMDR1 (MDR1 humanized), mouse
P-gp [3] = target: T1, P-gp (Mus musculus, UniProt P21447); settings: in vivo
Method: Brain to plasma total concentration ratios (Kp) of the substances were measured for each animal. Unbound volume of distribution in brain (Vu, brain) was measured with the brain slice method [14] and fraction unbound in plasma (fu, p) was measured with high throughput equilibrium dialysis.
All the substances were administered subcutaneously except docetaxel, which was given intravenously in the tail vein as a slow injection over five minutes due to its tissue irritating character. […] The volume administered of all substances was 0.01 ml/g_body weight.
Blood was collected with a pre-heparinized syringe by cardiac puncture and was centrifuged for 5 minutes at 10000 rpm to obtain plasma. Brain was also sampled. The brain was divided in two equal parts and frozen on dry ice before weighed. All the samples were stored at -80°C until analysis.
(§1) The total brain concentration (ng/g brain tissue) of the substance was divided with the total plasma concentration (ng/ml) of the substance to obtain the tissue partition ratio (Kp), which was compared between the groups of mice. […] The the fraction unbound in plasma (fu, p) measured with equilibrium dialysis was used in the calculations.

human P-gp (hMDR1) [4] = settings: mouse, in vivo
human P-gp (hMDR1) [5] = settings: digoxin 1 mg/kg s.c.; blocker one hour before digoxin
Description: as §1

P-gp [6] = tested on: P-gp; set-up: method as in PMID 16850390; settings: cited from earlier work
P-gp [7] = target: T1, P-gp; settings: C57BL/6 WT mice, oxycodone 1 mg/kg s.c., cyclosporine A 100 mg/kg i.p., verapamil 3 mg/kg s.c. or elacridar 6 mg/kg s.c. one hour before
Description: Brain and liver were sampled after sacrificing the animal.
as §1

P-gp [8] = settings: rats; cited from earlier work
P-gp [9] = tested on: P-gp; set-up: method as in PMID 19047468; settings: PET imaging; cited from earlier work
P-gp [10] = target: T1, P-gp; set-up: hMDR1 and C57BL/6 WT mice; from tissue; host or cells: blood-brain barrier (brain capillaries) of living male C57BL/6 WT mice; method as in PMID 7910522; settings: cited from earlier work
[11] = hMDR1 (MDR1 humanized), mouse, plasma

T1 sequence (P21447 whole entry): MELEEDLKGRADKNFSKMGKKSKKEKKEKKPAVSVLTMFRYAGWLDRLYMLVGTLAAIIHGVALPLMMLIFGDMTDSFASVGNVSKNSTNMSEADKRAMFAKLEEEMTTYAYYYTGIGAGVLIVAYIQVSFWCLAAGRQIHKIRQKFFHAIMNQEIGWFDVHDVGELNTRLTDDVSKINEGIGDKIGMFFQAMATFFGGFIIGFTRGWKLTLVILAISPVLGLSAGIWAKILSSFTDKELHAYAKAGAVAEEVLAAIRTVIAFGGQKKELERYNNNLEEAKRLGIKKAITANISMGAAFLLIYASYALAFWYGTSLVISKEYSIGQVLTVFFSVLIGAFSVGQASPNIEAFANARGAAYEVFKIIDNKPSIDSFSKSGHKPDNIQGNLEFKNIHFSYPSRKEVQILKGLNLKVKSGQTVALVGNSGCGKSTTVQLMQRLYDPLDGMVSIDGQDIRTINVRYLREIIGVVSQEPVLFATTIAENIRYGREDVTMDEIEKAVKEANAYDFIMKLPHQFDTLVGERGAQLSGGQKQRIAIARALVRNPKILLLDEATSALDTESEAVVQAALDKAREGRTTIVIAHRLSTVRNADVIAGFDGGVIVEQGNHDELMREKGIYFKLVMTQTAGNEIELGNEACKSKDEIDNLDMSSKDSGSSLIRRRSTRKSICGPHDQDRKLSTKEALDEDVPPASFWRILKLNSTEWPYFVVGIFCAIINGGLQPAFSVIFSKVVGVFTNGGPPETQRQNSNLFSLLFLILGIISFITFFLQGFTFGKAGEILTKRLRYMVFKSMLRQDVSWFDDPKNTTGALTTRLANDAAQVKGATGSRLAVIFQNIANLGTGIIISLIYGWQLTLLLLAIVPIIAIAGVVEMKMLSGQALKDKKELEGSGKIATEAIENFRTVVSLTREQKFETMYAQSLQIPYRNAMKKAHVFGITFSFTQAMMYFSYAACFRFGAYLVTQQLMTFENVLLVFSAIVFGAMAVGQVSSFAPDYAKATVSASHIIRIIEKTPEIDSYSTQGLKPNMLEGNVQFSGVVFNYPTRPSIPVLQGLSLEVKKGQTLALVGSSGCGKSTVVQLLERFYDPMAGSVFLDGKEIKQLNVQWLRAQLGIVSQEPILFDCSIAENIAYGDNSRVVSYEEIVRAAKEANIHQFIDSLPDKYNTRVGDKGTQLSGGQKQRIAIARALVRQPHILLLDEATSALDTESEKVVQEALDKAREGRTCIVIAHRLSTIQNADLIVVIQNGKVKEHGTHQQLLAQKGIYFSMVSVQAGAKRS
Chain of mouse P-gp (P21447 whole entry): as above

Work on C[C@H]1O[C@@H](O[C@H]2[C@@H](O)C[C@H](O[C@H]3[C@@H](O)C[C@H](O[C@H]4CC[C@@]5(C)[C@H](CC[C@@H]6[C@@H]5C[C@@H](O)[C@]5(C)[C@@H](C7=CC(=O)OC7)CC[C@]65O)C4)O[C@@H]3C)O[C@@H]2C)C[C@H](O)[C@@H]1O [Digoxin] yielded a fraction unbound (in vitro; C57BL/6, mouse, plasma) of 0.594 and a fraction unbound (in vitro; [11]) of 0.607.

Work on CC(=O)O[C@@]12CO[C@@H]1C[C@H](O)[C@@]1(C)C(=O)[C@H](O)C3=C(C)[C@@H](OC(=O)[C@H](O)[C@@H](NC(=O)OC(C)(C)C)c4ccccc4)C[C@@](O)([C@@H](OC(=O)c4ccccc4)[C@H]21)C3(C)C [Docetaxel] yielded a Kp uu at 1 h (mouse P-gp) of 0.002, a fraction unbound (in vitro; C57BL/6, mouse, plasma) of 0.053 and a fraction unbound (in vitro; [11]) of 0.052. For the same compound, the “Vu, brain” value [1] was 789 ml/g_brain, the “Vu, brain (nonspecific binding to brain parenchymal tissue)” value [1] was 789 ml*g_brain^-1 and the Kp uu at 1 h (human P-gp (hMDR1) [2]) was 0.003. The “Kp in Mdr1a/1b(-/-) mice relative to FVB WT controls” value (P-gp [3]) was 4 times and the “Kp in hMDR1 mice relative to C57BL/6 WT mice” value (human P-gp (hMDR1) [4]) was 2 times.

For COc1cc2c(cc1OC)CN(CCc1ccc(NC(=O)c3cccc4c(=O)c5cccc(OC)c5[nH]c34)cc1)CC2 [Elacridar], the “Digoxin Kp in hMDR1 mice compared to C57BL/6 WT controls when treated with the blocker” value (human P-gp (hMDR1) [5]) is listed as “significantly higher”, the “Blood concentration needed in guinea pigs to obtain the same inhibition as in rats and mice” value (P-gp [6]) is listed as “higher blood concentration” and the “Effect of the P-gp blocker on oxycodone Kp” value (P-gp [7]) is listed as “not changed”. The “Effect of the P-gp blocker on oxycodone Kp” value (P-gp [7]; listed as elacridar (GF120918)) was “no effect”.

For COc1ccc2c3c1O[C@H]1C(=O)CC[C@@]4(O)[C@@H](C2)N(C)CC[C@]314 [Oxycodone], the fraction unbound (in vitro; C57BL/6, mouse) was 0.681 and the fraction unbound (in vitro; hMDR1 (MDR1 humanized), mouse) was 0.681.

In the case of C/C=C/C[C@@H](C)C(=O)[C@H]1C(=O)N[C@@H](C(C)C)C(=O)N(C)CC(=O)N(C)[C@@H](CC(C)C)C(=O)N[C@@H](C(C)C)C(=O)N(C)[C@@H](CC(C)C)C(=O)N[C@@H](C)C(=O)N[C@H](C)C(=O)N(C)[C@@H](CC(C)C)C(=O)N(C)[C@@H](CC(C)C)C(=O)N(C)[C@@H](C(C)C)C(=O)N1C [PSC833], the “Effect of the P-gp blocker on the tail-flick latency of oxycodone” value (P-gp [8]) is given as “no effect”.

With C=C[C@H]1C[N@@]2CC[C@H]1C[C@@H]2[C@@H](O)c1ccnc2ccc(OC)cc12 [Quinidine, Quinidine gluconate] the “Digoxin Kp in hMDR1 mice compared to C57BL/6 WT controls when treated with the blocker” value (human P-gp (hMDR1) [5]) was “significantly higher”.

In the case of O=C(c1ccc([18F])cc1)C1CCN(CCn2c(=S)[nH]c3ccccc3c2=O)CC1 [[18F]altanserine], the “Brain penetration in humans relative to rodents” value (P-gp [9]) is listed as 4.5 times.

For CC[C@]1(O)C[C@@H]2CN(CCc3c([nH]c4ccccc34)[C@@](C(=O)OC)(c3cc4c(cc3OC)N(C)[C@H]3[C@@](O)(C(=O)OC)[C@H](OC(C)=O)[C@]5(CC)C=CCN6CC[C@]43[C@@H]65)C2)C1 [vinblastine], the “Sensitivity of Mdr1a(-/-) mice compared to wild type controls” value (P-gp [10]) is given as 3 fold.
